Values quoted from earlier work as cited in patent CN104013603A, “一种烟碱缓释贴剂” (Shanghai Tobacco Group Co Ltd, priority 2014, dated 2014).

Columns and labels:
[1] = background statement
[2] = background statement; remark: listed apart in the source

## CN1CCC[C@H]1c1cccnc1 [尼古丁, (S)-3-(1-Methyl-2-pyrroli-dinyl)pyridine]
[1]
  penetration into skin: 可渗入皮肤
[2]
  solubility: 可溶于水、乙醇、氯仿、乙醚、油类
